Here are results for 20 compounds from patent US8222404B2, “[1,2,4]Thiadiazin-3-yl acetic acid compound and methods of making the acetic acid compound” (Anadys Pharmaceuticals, Inc., priority 2008, dated 2012).

Each structure is given as a SMILES string. Some results are limits rather than exact numbers.

Usually EC50 stands for the concentration needed to bring the measured effect to its halfway point. Read a low EC50 as higher potency in that assay.

For the experiment, the system named is HCV Huh-luc/neo-ET replicon cells. Nature of the experiment: Luciferase-Based HCV Replicon Assay (EC50 (1b)). The class given is cell-based. The conditions noted are these: Hepatitis C virus, 72 hours exposure, luciferase activity. How it is done: Luciferase-Based HCV Replicon Assay Protocol (EC50 (1b))
The cell culture component of the assay was performed essentially as described by Bartenschlager et al., Hepatology 2002, 35, 694-703, wherein exponentially growing HCV Huh-luc/neo-ET replicon cells were seeded at 6×10^3 cells/well in 96 well assay plate. 24 hours later the cells were treated with various concentrations of compound in triplicate. After 72 hours exposure to the compound, the luciferase activity in the wells was determined using Bright-Glo reagent (Promega, Madison, Wis.) with a luminometer (Wallac 1420 Multilabel HTS Counter Victor 2). The background control was replicon cells treated with 100 nM BILN-2061, an inhibitor of the HCV protease. % Inhibition was determined for each compound concentration in relation to the negative (no compound) control to calculate the EC50 (1b).
`CS(=O)(=O)NCc1csc2c1S(=O)(=O)N=C(C1=C(O)[C@@H]3C4CCC(CC4)[C@@H]3N(Cc3ccccc3)C1=O)N2` [Example 48, N-[3-((2S,7R)-3-Benzyl-6-hydroxy-4-oxo-3-aza-tricyclo[6.2.2.0^2,7]dodec-5-en-5-yl)-1,1-dioxo-1,4-dihydro-1λ^6-thieno[2,3-e][1,2,4]thiadiazin-7-ylmethyl]-methanesulfonamide] came in with an EC50 of no more than 5 nM.

`CS(=O)(=O)NCc1csc2c1S(=O)(=O)N=C(C1=C(O)C3CCCC3N(Cc3ccc(F)cc3)C1=O)N2` (racemic) [Example 2, (rac-cis)-N-{3-[1-(4-Fluoro-benzyl)-4-hydroxy-2-oxo-2,4a,5,6,7,7a-hexahydro-1H-[1]pyrindin-3-yl]-1,1-dioxo-1,4-dihydro-1λ^6-thieno[2,3-e][1,2,4]thiadiazin-7-ylmethyl}-methanesulfonamide] showed a concentration for a half-maximal effect (EC50) of 5 to 20 nM.

For the compound `CS(=O)(=O)NCc1csc2c1S(=O)(=O)N=C(C1=C(O)C3CCCCCC3N(Cc3ccsc3)C1=O)N2` (racemic) [Example 141, (rac-cis)-N-[3-(4-Hydroxy-2-oxo-1-thiophen-3-ylmethyl-2,4a,5,6,7,8,9,9a-octahydro-1H-cyclohepta[b]pyridin-3-yl)-1,1-dioxo-1,4-dihydro-1λ^6-thieno[2,3-e][1,2,4]thiadiazin-7-ylmethyl]-methanesulfonamide], the 50% effective concentration (EC50) is greater than 1000 nM.

Compound `CC(C)CCN1C(=O)C(C2=NS(=O)(=O)c3c(CNS(C)(=O)=O)csc3N2)=C(O)C2CCCCC21` (racemic) [Example 132, (rac-cis)-N-{3-[4-Hydroxy-1-(3-methyl-butyl)-2-oxo-1,2,4a,5,6,7,8,8a-octahydro-quinolin-3-yl]-1,1-dioxo-1,4-dihydro-1λ^6-thieno[2,3-e][1,2,4]thiadiazin-7-ylmethyl}-methanesulfonamide] showed an EC50 of 20 to 100 nM.

For the compound `CC1(CCN2C(=O)C(C3=NS(=O)(=O)c4c(CNS(C)(=O)=O)csc4N3)=C(O)C3C4CCC(CC4)C32)CC1` (centres unmarked) [Example 109, N-(3-{6-Hydroxy-3-[2-(1-methyl-cyclopropyl)-ethyl]-4-oxo-3-aza-tricyclo[6.2.2.0^2,7]dodec-5-en-5-yl]-1,1-dioxo-1,4-dihydro-1λ^6-thieno[2,3-e][1,2,4]thiadiazin-7-ylmethyl)-methanesulfonamide], the EC50 was in the range of 5 to 20 nM.

Compound `CS(=O)(=O)NCc1csc2c1S(=O)(=O)N=C(C1=C(O)[C@@H]3C4CCC(CC4)[C@@H]3N(Cc3ccsc3)C1=O)N2` [Example 60, N-[3-((2S,7R)-6-Hydroxy-4-oxo-3-thiophen-3-ylmethyl-3-aza-tricyclo[6.2.2.0^2,7]dodec-5-en-5-yl)-1,1-dioxo-1,4-dihydro-1λ^6-thieno[2,3-e][1,2,4]thiadiazin-7-ylmethyl]-methanesulfonamide] had an EC50 of no more than 5 nM.

Turning to `CS(=O)(=O)NCc1csc2c1S(=O)(=O)N=C(C1=C(O)C3CCCCC3N(C3CCCCC3)C1=O)N2` (racemic) [Example 100, (rac-cis)-N-[3-(1-Cyclohexyl-4-hydroxy-2-oxo-1,2,4a,5,6,7,8,8a-octahydro-quinolin-3-yl)-1,1-dioxo-1,4-dihydro-1λ^6-thieno[2,3-e][1,2,4]thiadiazin-7-ylmethyl]-methanesulfonamide], the EC50 lay in the range of 100 to 1000 nM.

`CC(C)(C)CCN1C(=O)C(C2=NS(=O)(=O)c3c(CNS(C)(=O)=O)csc3N2)=C(O)[C@@H]2CCC[C@@H]21` [Example 129, (4aR,7aS)-N-{3-[1-(3,3-Dimethyl-butyl)-4-hydroxy-2-oxo-2,4a,5,6,7,7a-hexahydro-1H-[1]pyrindin-3-yl]-1,1-dioxo-1,4-dihydro-1λ^6-thieno[2,3-e][1,2,4]thiadiazin-7-ylmethyl}-methanesulfonamide] gave an EC50 of 5 to 20 nM.

`CS(=O)(=O)NCc1csc2c1S(=O)(=O)N=C(C1=C(O)[C@@H]3C4CCC(CC4)[C@@H]3N(Cc3ccc(F)cc3Cl)C1=O)N2` [Example 96, N-{3-[(2S,7R)-3-(2-Chloro-4-fluoro-benzyl)-6-hydroxy-4-oxo-3-aza-tricyclo[6.2.2.0^2,7]dodec-5-en-5-yl]-1,1-dioxo-1,4-dihydro-1λ^6-thieno[2,3-e][1,2,4]thiadiazin-7-ylmethyl}-methanesulfonamide] came in with an EC50 of 20 to 100 nM.

The compound `CC(C)(C)CCN1C(=O)C(C2=NS(=O)(=O)c3c(CNS(C)(=O)=O)csc3N2)=C(O)C2C3C=CC(C3)C21` (racemic) [Example 65, (rac-di-exo)-N-{3-[3-(3,3-Dimethyl-butyl)-6-hydroxy-4-oxo-3-aza-tricyclo[6.2.1.0^2,7]undeca-5,9-dien-5-yl]-1,1-dioxo-1,4-dihydro-1λ^6-thieno[2,3-e][1,2,4]thiadiazin-7-ylmethyl}-methanesulfonamide] showed an EC50 of no more than 5 nM.

Regarding `CS(=O)(=O)NCc1csc2c1S(=O)(=O)N=C(C1=C(O)[C@@H]3C4CCC(CC4)[C@@H]3N(Cc3cc(F)c(F)c(F)c3)C1=O)N2` [Example 70, N-{3-[(2S,7R)-6-Hydroxy-4-oxo-3-(3,4,5-trifluoro-benzyl)-3-aza-tricyclo[6.2.2.0^2,7]dodec-5-en-5-yl]-1,1-dioxo-1,4-dihydro-1λ^6-thieno[2,3-e][1,2,4]thiadiazin-7-ylmethyl}-methanesulfonamide], the EC50 was no more than 5 nM.

In turn, `CS(=O)(=O)NCc1csc2c1S(=O)(=O)N=C(C1=C(O)[C@@H]3[C@@H]4CC[C@@H](C4)[C@@H]3N(Cc3ccc(F)c(Cl)c3)C1=O)N2` [Example 95, N-{3-[(1 S,2S,7R,8R)-3-(3-Chloro-4-fluoro-benzyl)-6-hydroxy-4-oxo-3-aza-tricyclo[6.2.1.0^2,7]undec-5-en-5-yl]-1,1-dioxo-1,4-dihydro-1λ^6-thieno[2,3-e][1,2,4]thiadiazin-7-ylmethyl}-methanesulfonamide] displayed an EC50 of 20 to 100 nM.

Turning to `CS(=O)(=O)NCc1csc2c1S(=O)(=O)N=C(C1=C(O)C3CCCCCC3N(Cc3ccc(F)c(Cl)c3)C1=O)N2` (racemic) [Example 123, (rac-cis)-N-{3-[1-(3-Chloro-4-fluoro-benzyl)-4-hydroxy-2-oxo-2,4a,5,6,7,8,9,9a-octahydro-1H-cyclohepta[b]pyridin-3-yl]-1,1-dioxo-1,4-dihydro-1λ^6-thieno[2,3-e][1,2,4]thiadiazin-7-ylmethyl}-methanesulfonamide], the EC50 lay within 100 to 1000 nM.

`COc1ccc(CN2C(=O)C(C3=NS(=O)(=O)c4c(CNS(C)(=O)=O)csc4N3)=C(O)[C@@H]3C4CCC(CC4)[C@@H]32)c(OC)c1` [Example 74, N-{3-[(2S,7R)-3-(2,4-Dimethoxy-benzyl)-6-hydroxy-4-oxo-3-aza-tricyclo[6.2.2.0^2,7]dodec-5-en-5-yl]-1,1-dioxo-1,4-dihydro-1λ^6-thieno[2,3-e][1,2,4]thiadiazin-7-ylmethyl}-methanesulfonamide] showed an EC50 greater than 1000 nM.

For the compound `CC(C)(C)CCN1C(=O)C(C2=NS(=O)(=O)c3c(CNS(C)(=O)=O)csc3N2)=C(O)[C@@H]2[C@@H]3CC[C@@H](C3)[C@@H]21` [Example 59, N-{3-[(1S,2S,7R,8R)-3-(3,3-Dimethyl-butyl)-6-hydroxy-4-oxo-3-aza-tricyclo[6.2.1.0^2,7]undec-5-en-5-yl]-1,1-dioxo-1,4-dihydro-1λ^6-thieno[2,3-e][1,2,4]thiadiazin-7-ylmethyl}-methanesulfonamide], the concentration for a half-maximal effect (EC50) is 20 to 100 nM.

As to `CS(=O)(=O)NCc1csc2c1S(=O)(=O)N=C(C1=C(O)C3CCCCC3N(CC3CCCCC3)C1=O)N2` (racemic) [Example 104, (rac-cis)-N-[3-(1-Cyclohexylmethyl-4-hydroxy-2-oxo-1,2,4a,5,6,7,8,8a-octahydro-quinolin-3-yl)-1,1-dioxo-1,4-dihydro-1λ^6-thieno[2,3-e][1,2,4]thiadiazin-7-ylmethyl]-methanesulfonamide], the concentration for a half-maximal effect (EC50) lay in the range of 100 to 1000 nM.

For `CS(=O)(=O)NCc1csc2c1S(=O)(=O)N=C(C1=C(O)[C@@H]3CCC[C@@H]3N(C3CCCCC3)C1=O)N2` [Example 99, (4aR,7aS)-N-[3-(1-Cyclohexyl-4-hydroxy-2-oxo-2,4a,5,6,7,7a-hexahydro-1H-[1]pyrindin-3-yl)-1,1-dioxo-1,4-dihydro-1λ^6-thieno[2,3-e][1,2,4]thiadiazin-7-ylmethyl]-methanesulfonamide], the EC50 was in the range of 100 to 1000 nM.

With `COc1ccc(CN2C(=O)C(C3=NS(=O)(=O)c4c(CNS(C)(=O)=O)csc4N3)=C(O)C3C4C=CC(C4)C32)c(OC)c1` (racemic) [Example 76, (rac-di-exo)-N-{3-[3-(2,4-Dimethoxy-benzyl)-6-hydroxy-4-oxo-3-aza-tricyclo[6.2.1.0^2,7]undeca-5,9-dien-5-yl]-1,1-dioxo-1,4-dihydro-1λ^6-thieno[2,3-e][1,2,4]thiadiazin-7-ylmethyl}-methanesulfonamide], the EC50 was greater than 1000 nM.

Turning to `CS(=O)(=O)NCc1csc2c1S(=O)(=O)N=C(C1=C(O)[C@@H]3CCC[C@@H]3N(Cc3ccc(F)c(Cl)c3)C1=O)N2` [Example 113, (4aR,7aS)-N-{3-[1-(3-Chloro-4-fluoro-benzyl)-4-hydroxy-2-oxo-2,4a,5,6,7,7a-hexahydro-1H-[1]pyrindin-3-yl]-1,1-dioxo-1,4-dihydro-1λ^6-thieno[2,3-e][1,2,4]thiadiazin-7-ylmethyl}-methanesulfonamide], the EC50 was in the range of 20 to 100 nM.

`COc1ccc(CN2C(=O)C(C3=NS(=O)(=O)c4c(CNS(C)(=O)=O)csc4N3)=C(O)[C@@H]3[C@H]4CC[C@H](C4)[C@@H]32)c(OC)c1` [Example 72, N-{3-[(1R,2S,7R,8S)-3-(2,4-Dimethoxy-benzyl)-6-hydroxy-4-oxo-3-aza-tricyclo[6.2.1.0^2,7]undec-5-en-5-yl]-1,1-dioxo-1,4-dihydro-1λ^6-thieno[2,3-e][1,2,4]thiadiazin-7-ylmethyl}-methanesulfonamide] gave an EC50 greater than 1000 nM.
